Test results: US6686355B2, “Biphenyl sulfonamides useful as matrix metalloproteinase inhibitors” (Warner-Lambert Company, priority 2001, dated 2004)

Legend:
Assay type in all cases: biochemical
[1] = target: T1, MMP-1FL (full length interstitial collagenase) (Homo sapiens, UniProt P03956); experiment: Thiopeptolide hydrolysis assay, MMP-1FL; settings: thiopeptolide substrate, HEPES pH 7.0, 22° C.
T1 sequence (P03956 100-469): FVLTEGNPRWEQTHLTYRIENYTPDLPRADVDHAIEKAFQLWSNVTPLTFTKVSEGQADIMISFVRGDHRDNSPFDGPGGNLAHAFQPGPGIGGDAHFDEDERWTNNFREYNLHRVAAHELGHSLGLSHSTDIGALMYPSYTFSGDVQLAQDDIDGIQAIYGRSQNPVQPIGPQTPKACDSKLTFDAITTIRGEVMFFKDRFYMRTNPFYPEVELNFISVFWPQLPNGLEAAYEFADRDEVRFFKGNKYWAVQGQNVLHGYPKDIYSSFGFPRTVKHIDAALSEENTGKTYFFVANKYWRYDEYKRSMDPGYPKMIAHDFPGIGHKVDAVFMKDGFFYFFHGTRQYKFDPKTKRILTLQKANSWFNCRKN
Description: (§1) The assays measure the amount by which a test compound reduces the hydrolysis of a thiopeptolide substrate catalyzed by a matrix metalloproteinase enzyme. Such assays are described in detail by Ye et al., in Biochemistry, 1992;31(45):11231-11235, which is incorporated herein by reference.
(§2) Thiopeptolide substrates show virtually no decomposition or hydrolysis at or below neutral pH in the absence of a matrix metalloproteinase enzyme. A typical thiopeptolide substrate commonly utilized for assays is Ac-Pro-Leu-Gly-thioester-Leu-Leu-Gly-OEt. A 100 μL assay mixture will contain 50 mM of N-2-hydroxyethylpiperazine-N′-2-ethanesulfonic acid buffer (“HEPES”) at pH 7.0, 10 mM CaCl2, 100 μM thiopeptolide substrate, and 1 mM 5,5″-dithio-bis-(2-nitro-benzoic acid) (DTNB). The thiopeptolide substrate concentration may be varied from, for example, 10 to 800 μM to obtain Km and Kcat values. The change in absorbance at 405 nm is monitored on a Thermo Max microplate reader (Molecular Devices, Menlo Park, Calif.) at room temperature (22° C.). The calculation of the amount of hydrolysis of the thiopeptolide substrate is based on E412=13600 M^−1 cm^−1 for the DTNB-derived product 3-carboxy4-nitrothiophenoxide. Assays are carried out with and without matrix metalloproteinase inhibitor compounds, and the amount of hydrolysis is compared for a determination of inhibitory activity of the test compounds.
(§3) Several representative compounds have been evaluated for their ability to inhibit various matrix metalloproteinase enzymes. In Table I, MMP-1FL refers to full length interstitial collagenase; MMP-2FL refers to full length Gelatinase A; MMP-3CD refers to the catalytic domain of stromelysin-1; MMP-7FL refers to full length matrilysin; MMP-9FL refers to full length Gelatinase B; MMP-13CD refers to the catalytic domain of collagenase 3; and MMP-14CD refers to the catalytic domain of MMP-14. Test compounds were evaluated at various concentrations in order to determine their respective IC50 values, the micromolar concentration of compound required to cause a 50% inhibition of the catalytic activity of the respective enzyme.

[2] = target: T2, MMP-2FL (full length Gelatinase A) (Homo sapiens, UniProt P08253); experiment: Thiopeptolide hydrolysis assay, MMP-2FL; settings: thiopeptolide substrate, HEPES pH 7.0, 22° C.
T2 sequence (P08253 110-660): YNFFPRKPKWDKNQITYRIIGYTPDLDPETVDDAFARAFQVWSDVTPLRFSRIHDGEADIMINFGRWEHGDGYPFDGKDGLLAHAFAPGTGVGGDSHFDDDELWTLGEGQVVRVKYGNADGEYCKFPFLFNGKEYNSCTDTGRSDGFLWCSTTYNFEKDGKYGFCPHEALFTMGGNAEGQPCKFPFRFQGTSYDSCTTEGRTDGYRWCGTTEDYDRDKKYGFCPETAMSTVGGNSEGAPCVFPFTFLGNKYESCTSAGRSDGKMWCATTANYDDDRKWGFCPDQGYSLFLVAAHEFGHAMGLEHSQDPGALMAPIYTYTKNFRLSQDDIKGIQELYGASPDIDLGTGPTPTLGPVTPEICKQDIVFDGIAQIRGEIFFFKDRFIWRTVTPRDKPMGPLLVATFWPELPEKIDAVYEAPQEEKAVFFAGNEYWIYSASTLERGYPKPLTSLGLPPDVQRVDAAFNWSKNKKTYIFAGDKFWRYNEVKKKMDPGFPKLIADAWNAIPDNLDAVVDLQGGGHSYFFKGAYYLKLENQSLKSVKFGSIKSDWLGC
Description: as §1, §2, §3

[3] = target: MMP-3CD (catalytic domain of stromelysin-1) (Homo sapiens, UniProt P08254); experiment: Thiopeptolide hydrolysis assay, MMP-3CD; settings: thiopeptolide substrate, MES pH 6.0
Chain of MMP-3CD (catalytic domain of stromelysin-1) (P08254 100-272 limits assumed): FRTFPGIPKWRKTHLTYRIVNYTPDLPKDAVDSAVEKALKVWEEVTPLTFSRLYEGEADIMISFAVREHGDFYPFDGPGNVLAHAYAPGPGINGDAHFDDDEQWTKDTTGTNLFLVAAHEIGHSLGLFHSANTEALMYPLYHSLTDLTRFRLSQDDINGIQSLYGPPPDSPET
Description: as §1, §2, §3
It should be appreciated that the assay buffer used with MMP-3CD was 50 mM of 2-morpholinoethanesulfonic acid monohydrate (“MES”) at pH 6.0 rather than the HEPES buffer at pH 7.0 described above.

[4] = target: T3, MMP-7FL (full length matrilysin) (Homo sapiens, UniProt P09237); experiment: Thiopeptolide hydrolysis assay, MMP-7FL; settings: thiopeptolide substrate, HEPES pH 7.0, 22° C.
T3 sequence (P09237 95-267): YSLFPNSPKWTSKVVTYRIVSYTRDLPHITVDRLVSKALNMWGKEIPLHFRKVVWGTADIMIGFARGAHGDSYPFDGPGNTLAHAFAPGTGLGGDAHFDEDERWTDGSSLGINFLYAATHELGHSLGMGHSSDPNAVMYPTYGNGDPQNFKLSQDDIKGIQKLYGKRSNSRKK
Description: as §1, §2, §3

[5] = target: MMP-9FL (full length Gelatinase B) (Homo sapiens, UniProt P14780); experiment: Thiopeptolide hydrolysis assay, MMP-9FL; settings: thiopeptolide substrate, HEPES pH 7.0, 22° C.
Chain of MMP-9FL (full length Gelatinase B) (P14780 94-707, species assumed): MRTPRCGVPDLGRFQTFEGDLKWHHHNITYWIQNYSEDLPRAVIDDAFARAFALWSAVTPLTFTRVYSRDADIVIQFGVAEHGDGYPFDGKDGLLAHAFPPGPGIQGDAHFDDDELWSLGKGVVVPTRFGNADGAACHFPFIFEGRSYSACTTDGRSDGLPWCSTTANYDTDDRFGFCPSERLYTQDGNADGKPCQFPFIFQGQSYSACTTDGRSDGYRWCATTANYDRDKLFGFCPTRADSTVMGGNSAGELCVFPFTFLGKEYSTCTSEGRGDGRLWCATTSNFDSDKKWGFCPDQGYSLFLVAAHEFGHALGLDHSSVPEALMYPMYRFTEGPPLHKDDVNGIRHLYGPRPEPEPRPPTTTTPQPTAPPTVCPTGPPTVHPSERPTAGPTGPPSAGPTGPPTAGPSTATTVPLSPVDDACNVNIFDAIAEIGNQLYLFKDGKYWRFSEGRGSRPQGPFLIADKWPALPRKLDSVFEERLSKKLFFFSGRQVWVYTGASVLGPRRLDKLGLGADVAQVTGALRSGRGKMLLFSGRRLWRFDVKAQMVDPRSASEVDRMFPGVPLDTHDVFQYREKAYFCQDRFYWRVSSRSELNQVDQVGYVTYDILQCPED
Description: as §1, §2, §3

MMP-12CD = target: T4, MMP-12CD (Homo sapiens, UniProt P39900); experiment: Thiopeptolide hydrolysis assay, MMP-12CD; settings: thiopeptolide substrate, HEPES pH 7.0, 22° C.
T4 construct: MMP-12CD
T4 sequence (P39900 106-263 limits assumed): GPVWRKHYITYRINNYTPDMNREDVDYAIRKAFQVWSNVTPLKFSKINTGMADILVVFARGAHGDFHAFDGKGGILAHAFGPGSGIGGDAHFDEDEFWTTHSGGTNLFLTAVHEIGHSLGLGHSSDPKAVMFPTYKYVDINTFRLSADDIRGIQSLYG
Description: as §1, §2, §3

[6] = target: MMP-13CD (catalytic domain of collagenase 3) (Homo sapiens, UniProt P45452); experiment: Thiopeptolide hydrolysis assay, MMP-13CD; settings: thiopeptolide substrate, HEPES pH 7.0, 22° C.
Description: as §1, §2, §3

[7] = target: MMP-14CD (catalytic domain of MMP-14) (Homo sapiens, UniProt P50281); experiment: Thiopeptolide hydrolysis assay, MMP-14CD; settings: thiopeptolide substrate, HEPES pH 7.0, 22° C.
Description: as §1, §2, §3

| Compound | IC50 [1] [µM] | IC50 [2] [µM] | IC50 [3] [µM] | IC50 [4] [µM] | IC50 [5] [µM] | IC50 (MMP-12CD) [µM] | IC50 [6] [µM] | IC50 [7] [µM] |
| --- | --- | --- | --- | --- | --- | --- | --- | --- |
| CC1(C)SCCN(S(=O)(=O)c2ccc(-c3ccc(F)c(F)c3)cc2)[C@H]1C(=O)O [Example 41, (S)-4-(3′,4′-Difluoro-biphenyl-4-sulfonyl)-2,2-dimethyl-thiomorpholine-3-carboxylic acid] | 9.7 | 0.23 | 0.054 | 92.5 | 6.65 | 0.0285 | 0.3 | 0.615 |
| CCOc1ccc(-c2ccc(S(=O)(=O)N3CCSC(C)(C)[C@@H]3C(=O)O)cc2)cc1 [Example 43, (S)-4-(4′-Ethoxy-biphenyl-4-sulfonyl)-2,2-dimethyl-thiomorpholine-3-carboxylic acid] | 7.95 | 0.0023 | 0.0038 | 70 | 0.018 | 0.001 | 0.0033 | 0.16 |
| CC1(C)SCCN(S(=O)(=O)c2ccc(-c3ccc(-c4ccccc4)c(F)c3)cc2)[C@H]1C(=O)O [Example 53, (S)-4-(2′-Fluoro-[1,1′;4′,1″]terphenyl-4″-sulfonyl)-2,2-dimethyl-thiomorpholine-3-carboxylic acid] | 3.15 | 0.0043 | 0.0072 | 1.85 | 0.017 | 0.001 | 0.0086 | 0.145 |
| (S)-2,2-Dimethyl-4-(4-methylsulfanyl-biphenyl-4-sulfonyl)-thiomorpholine-3-carboxylic acid [Example 37] | 2.03 | 0.0025 | 0.00475 | 6.87 | 0.069 | 0.001 | 0.00305 | 0.036 |
